Data as given in patent publication US11439641B2, “Pyrimidine JAK inhibitors for the treatment of skin diseases” (THERAVANCE BIOPHARMA R&D IP, LLC, priority 2019, dated 2022).
≈ marks a conversion by molar mass, not a printed value.

Experiments:
physchem = conditions: thermodynamic from solid
[1] = test system: IL-2 stimulated pSTAT5 in Tall-1 T cells; experiment: Inhibition of IL-2 Stimulated pSTAT5 in Tall-1 T Cells; type: cell-based; conditions: Tall-1 human T cell line, IL-2 300 ng/mL, AlphaLisa; read-out: Tall-1 IL2 pSTAT5 (pIC50) (converted)
Description: Assay 2: Inhibition of IL-2 Stimulated pSTAT5 in Tall-1 T Cells
The potency of test compounds for inhibition of interleukin-2 (IL-2) stimulated STATS phosphorylation was measured in the Tall-1 human T cell line (DSMZ) using AlphaLisa. Because IL-2 signals through JAK1/3, this assay provides a measure of JAK1/3 cellular potency.
Phosphorylated STATS was measured via the AlphaLISA SureFire Ultra pSTAT5 (Tyr694/699) kit (PerkinElmer). Human T cells from the Tall-1 cell line were cultured in a 37° C., 5% CO2 humidified incubator in RPMI (Life Technologies) supplemented with 15% Heat Inactivated Fetal Bovine Serum (FBS, Life Technologies), 2 mM Glutamax (Life Technologies), 25 mM HEPES (Life Technologies) and 1× Pen/Strep (Life Technologies). Compounds were serially diluted in DMSO and dispensed acoustically to empty wells. Assay media (phenol red-free DMEM (Life Technologies) supplemented with 10% FBS (ATCC)) was dispensed (4 μL/well) and plates shaken at 900 rpm for 10 mins. Cells were seeded at 45,000 cells/well in assay media (4 μL/well), and incubated at 37° C., 5% CO2 for 1 hour, followed by the addition of IL-2 (R&D Systems; final concentration 300 ng/mL) in pre-warmed assay media (4 μL) for 30 minutes. After cytokine stimulation, cells were lysed with 6 ul of 3× AlphaLisa Lysis Buffer (PerkinElmer) containing 1× PhosStop and Complete tablets (Roche). The lysate was shaken at 900 rpm for 10 minutes at room temperature (RT). Phosphorylated STATS was measured via the pSTAT5 AlphaLisa kit (PerkinElmer). Freshly prepared acceptor bead mixture was dispensed onto lysate (51) under green filtered <100 lux light. Plates were shaken at 900 rpm for 2 mins, briefly spun down, and incubated for 2 hrs at RT in the dark. Donor beads were dispensed (5 μL) under green filtered <100 lux light. Plates were shaken at 900 rpm for 2 minutes, briefly spun down, and incubated overnight at RT in the dark. Luminescence was measured with excitation at 689 nm and emission at 570 nm using an EnVision plate r reader (PerkinElmer) under green filtered <100 lux light.
To determine the inhibitory potency of test compounds in response to IL-2, the average emission intensity of beads bound to pSTAT5 was measured in a human T cell line. IC50 values were determined from analysis of the inhibition curves of signal intensity versus compound concentration. Data are expressed as pIC50 (negative decadic logarithm IC50) values (mean±standard deviation).

JAK1 = JAK1 (Homo sapiens (Human), UniProt P23458); experiment: Biochemical JAK and Tyk2 Kinase Assays (LanthaScreen), JAK1; conditions: 25 μM ATP (Km), pIC50 converted to pKi by Cheng-Prusoff
Description: (§1) Assay 1: Biochemical JAK and Tyk2 Kinase Assays
(§2) A panel of four LanthaScreen JAK biochemical assays (JAK1, 2, 3 and Tyk2) were carried in a common kinase reaction buffer (50 mM HEPES, pH 7.5, 0.01% Brij-35, 10 mM MgCl2, and 1 mM EGTA). Recombinant GST-tagged JAK enzymes and a GFP-tagged STAT1 peptide substrate were obtained from Life Technologies.
(§3) Serially or discretely diluted compounds were pre-incubated with each of the four JAK enzymes and the substrate in white 384-well microplates (Corning) at ambient temperature for 1 h. ATP was subsequently added to initiate the kinase reactions in 10 μL total volume, with 1% DMSO. The final enzyme concentrations for JAK1, 2, 3 and Tyk2 are 4.2 nM, 0.1 nM, 1 nM, and 0.25 nM respectively; the corresponding Km ATP concentrations used are 25 μM, 3 μM, 1.6 μM, and 10 μM; while the substrate concentration is 200 nM for all four assays. Kinase reactions were allowed to proceed for 1 hour at ambient temperature before a 10 μL preparation of EDTA (10 mM final concentration) and Tb-anti-pSTAT1 (pTyr701) antibody (Life Technologies, 2 nM final concentration) in TR-FRET dilution buffer (Life Technologies) was added. The plates were allowed to incubate at ambient temperature for 1 h before being read on the EnVision reader (Perkin Elmer). Emission ratio signals (520 nm/495 nm) were recorded and utilized to calculate the percent inhibition values based on DMSO and background controls.
(§4) For dose-response analysis, percent inhibition data were plotted vs. compound concentrations, and IC50 values were determined from a 4-parameter robust fit model with the Prism software (GraphPad Software). Results were expressed as pIC50 (negative logarithm of IC50) and subsequently converted to pKi (negative logarithm of dissociation constant, Ki) using the Cheng-Prusoff equation.

JAK3 = JAK3 (Homo sapiens (Human), UniProt P52333); experiment: Biochemical JAK and Tyk2 Kinase Assays (LanthaScreen), JAK3; conditions: 1.6 μM ATP (Km); pIC50 converted to pKi by Cheng-Prusoff; read-out: JAK 3 (pKi) (converted)
Description: as §1, §2, §3, §4

Caco-2 cell monolayer = experiment: Caco-2 Permeation Assay; type: in vitro ADME; conditions: Papp, 5 μM compound; for Cacoverap Kp 10^−6 cm/sec: A→B in the presence of 25 μM verapamil (P-gp inhibitor); for Caco Kp 10^−6 cm/sec: apical to basal (A→B)
Description: Assay 3: Caco-2 Permeation Assay
The Caco 2 permeability assay was used as a surrogate for assessment of skin permeability. This assay measures the in vitro permeability across a monolayer of Caco-2 cells, which morphologically and functionally resemble the enterocytes of the small intestine.
CacoReady 24-well transwell plates were obtained from ADMEcell (Alameda, Calif.). The compounds were evaluated at a concentration of 5 μM from 10 mM DMSO stock solutions in duplicate (n=2). Transport in the apical to basal (A→B) direction was determined in Caco 2 cell monolayers. From these values the apparent permeability (Papp) was calculated. To inform on the potential of the compound to be a P-gp substrate, the transport of the compound across the Caco-2 cell monolayer was also determined in the presence of 25 μM of the known P-gp inhibitor verapamil (Yusa and Tsuruo et al., Cancer Research, vol. 49, no. 18, 1989, pp. 5002-06).
Caco-2 culture media consisted of standard filtered DMEM, FCS 10%, L-Glutamine 1%, and PenStrep 1%. The experiment was conducted at 37° C. and in a CO2 (5%) incubator. The basal assay plate was prepared by adding 750 pt of transport buffer to A→B wells. A CacoReady™ plate was prepared by removing the Caco-2 media from the apical wells and replacing with fresh transport media (200 pt repeated for a total of 3 washes). Blank media (200 μL) was then replaced with diluted compound. To begin the incubation, the basal plate was removed from the incubator and the apical section was added on top of it. Samples were collected from the apical and basal compartments for time zero (t0). Samples were collected again after 120 minutes (t120) from the apical and basal compartments. All samples were diluted and prepared for bioanalysis by LC-MS/MS. The permeability coefficients (Papp, mean A to B) and (Papp, mean A to B+Verapamil) in cm/sec were calculated as dQ (flux)/(dt×Area×concentration).
In this assay, a compound with a Papp value of more than about 12×10−6 cm/sec is considered to have high permeability.

[2] = oil or lipid, Solubility in MCT (mg/mL)
[3] = organic solvent or mixture, Solubility in Diisopropyl adipate (mg/mL)
[4] = organic solvent or mixture, Solubility in PEG400 (mg/mL)
[5] = organic solvent or mixture, Solubility in Propylene glycol (mg/mL)

Sequence of JAK1 (P23458 whole entry): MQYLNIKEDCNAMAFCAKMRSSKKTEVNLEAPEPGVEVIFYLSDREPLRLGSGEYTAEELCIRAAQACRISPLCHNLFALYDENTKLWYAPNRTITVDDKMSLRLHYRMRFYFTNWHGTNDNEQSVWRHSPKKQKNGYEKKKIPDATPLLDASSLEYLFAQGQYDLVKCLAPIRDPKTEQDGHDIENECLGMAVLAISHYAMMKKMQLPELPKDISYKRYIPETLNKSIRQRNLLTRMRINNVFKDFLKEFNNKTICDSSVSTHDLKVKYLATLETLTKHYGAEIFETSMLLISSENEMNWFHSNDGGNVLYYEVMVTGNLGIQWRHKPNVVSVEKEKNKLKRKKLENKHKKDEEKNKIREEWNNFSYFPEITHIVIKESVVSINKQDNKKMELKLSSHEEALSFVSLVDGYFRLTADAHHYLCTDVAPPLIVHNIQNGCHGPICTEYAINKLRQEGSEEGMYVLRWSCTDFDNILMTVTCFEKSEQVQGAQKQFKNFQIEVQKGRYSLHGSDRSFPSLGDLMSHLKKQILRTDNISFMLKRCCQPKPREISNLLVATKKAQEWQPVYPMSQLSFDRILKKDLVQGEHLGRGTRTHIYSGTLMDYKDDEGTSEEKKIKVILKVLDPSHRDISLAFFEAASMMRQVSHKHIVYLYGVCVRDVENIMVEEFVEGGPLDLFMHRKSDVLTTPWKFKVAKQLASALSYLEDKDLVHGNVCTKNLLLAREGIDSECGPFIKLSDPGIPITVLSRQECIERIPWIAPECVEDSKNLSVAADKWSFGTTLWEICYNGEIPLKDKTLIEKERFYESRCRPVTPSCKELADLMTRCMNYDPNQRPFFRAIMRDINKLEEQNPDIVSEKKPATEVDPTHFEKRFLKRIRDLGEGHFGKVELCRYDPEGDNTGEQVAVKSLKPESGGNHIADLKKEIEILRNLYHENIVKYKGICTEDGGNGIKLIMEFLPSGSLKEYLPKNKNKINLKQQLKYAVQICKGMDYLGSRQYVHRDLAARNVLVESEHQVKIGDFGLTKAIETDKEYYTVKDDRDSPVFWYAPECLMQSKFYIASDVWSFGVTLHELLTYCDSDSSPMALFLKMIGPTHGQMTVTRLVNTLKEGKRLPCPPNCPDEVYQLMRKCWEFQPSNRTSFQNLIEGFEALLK
Sequence of JAK3 (P52333 whole entry): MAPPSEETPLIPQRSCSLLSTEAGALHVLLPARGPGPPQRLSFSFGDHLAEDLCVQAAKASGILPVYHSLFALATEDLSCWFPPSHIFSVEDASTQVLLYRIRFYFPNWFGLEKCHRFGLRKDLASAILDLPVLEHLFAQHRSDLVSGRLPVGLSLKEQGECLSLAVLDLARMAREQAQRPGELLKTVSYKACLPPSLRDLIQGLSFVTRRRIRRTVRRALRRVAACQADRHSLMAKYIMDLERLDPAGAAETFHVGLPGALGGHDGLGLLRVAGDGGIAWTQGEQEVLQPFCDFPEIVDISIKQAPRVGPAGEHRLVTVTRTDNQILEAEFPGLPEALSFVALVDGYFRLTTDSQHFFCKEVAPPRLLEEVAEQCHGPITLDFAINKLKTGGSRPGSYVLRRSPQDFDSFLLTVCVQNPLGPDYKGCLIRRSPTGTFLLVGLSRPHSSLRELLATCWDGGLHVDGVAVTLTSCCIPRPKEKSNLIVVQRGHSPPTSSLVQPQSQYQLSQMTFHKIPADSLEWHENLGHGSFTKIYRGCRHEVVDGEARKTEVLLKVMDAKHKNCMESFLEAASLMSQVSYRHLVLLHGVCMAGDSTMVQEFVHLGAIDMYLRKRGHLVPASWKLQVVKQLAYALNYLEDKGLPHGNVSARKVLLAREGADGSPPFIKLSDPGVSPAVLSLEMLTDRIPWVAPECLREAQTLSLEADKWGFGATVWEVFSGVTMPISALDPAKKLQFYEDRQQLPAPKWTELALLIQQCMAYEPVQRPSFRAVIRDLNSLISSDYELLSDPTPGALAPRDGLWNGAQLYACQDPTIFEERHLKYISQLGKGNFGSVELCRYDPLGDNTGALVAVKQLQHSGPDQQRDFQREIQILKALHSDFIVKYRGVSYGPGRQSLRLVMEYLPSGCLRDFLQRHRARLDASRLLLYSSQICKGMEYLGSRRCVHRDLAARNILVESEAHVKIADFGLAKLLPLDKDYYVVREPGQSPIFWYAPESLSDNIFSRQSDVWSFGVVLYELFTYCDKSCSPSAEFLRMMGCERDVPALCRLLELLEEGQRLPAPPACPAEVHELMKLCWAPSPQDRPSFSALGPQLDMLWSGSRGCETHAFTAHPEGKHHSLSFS

Compound | solubility at 4 h (physchem; [2]) [µg/mL] | solubility at 4 h (physchem; [3]) [µg/mL] | solubility at 4 h (physchem; [4]) [µg/mL] | solubility at 4 h (physchem; [5]) [µg/mL] | IC50 [1] [nM] | JAK 1 (pKi) (JAK1) | Ki (JAK3) [nM] | Cacoverap Kp 10^−6 cm/sec (Caco-2 cell monolayer) | Caco Kp 10^−6 cm/sec (Caco-2 cell monolayer) | Ki (JAK1; read-out: JAK 1 (pKi) (converted)) [nM]
Cc1cc(Nc2cc(O[C@H]3CCOC3)nc(N(C)[C@@H]3C[C@H]4CCC[C@@H](C3)N4C(=O)CC3CC3)n2)n[nH]1 [Compound 30] | < 5000 | < 5000 | < 5000 | < 5000 | ≤ 10 | A (A represents a pKi value ≥10 (Ki≤0.1 nM)) | 0.1 to 1 |  |  | 
CCNC(=O)CN1[C@@H]2CCC[C@H]1C[C@H](N(C)c1nc(Nc3cc(C)[nH]n3)cc(OC3COC3)n1)C2 [Compound 37] | < 5000 | < 5000 | < 5000 | < 5000 | ≤ 10 | A (A represents a pKi value ≥10 (Ki≤0.1 nM)) | 0.1 to 1 |  |  | 
COC(=O)N1[C@@H]2CCC[C@H]1C[C@H](N(C)c1nc(Nc3cc(C)[nH]n3)cc(O[C@H]3CCOC3)n1)C2 [Compound 27] | < 5000 | < 5000 | < 5000 | < 5000 | 10 to 31.6 | A (A represents a pKi value ≥10 (Ki≤0.1 nM)) | 0.1 to 1 |  |  | 
Cc1cc(Nc2cc(O[C@@H]3CCOC3)nc(N(C)[C@@H]3C[C@H]4CCC[C@@H](C3)N4C(=O)CC3CC3)n2)n[nH]1 [Compound 26] | < 5000 | < 5000 | < 5000 | < 5000 | ≤ 10 | A (A represents a pKi value ≥10 (Ki≤0.1 nM)) | 0.1 to 1 |  |  | 
CCNC(=O)CN1[C@@H]2CCC[C@H]1C[C@H](N(C)c1nc(Nc3cc(C)[nH]n3)cc(O[C@@H]3CCOC3)n1)C2 [Compound 20] | < 5000 | > 10000 | > 10000 | > 10000 | ≤ 10 | A (A represents a pKi value ≥10 (Ki≤0.1 nM)) | 0.1 to 1 | B (B represents a value between 20×10^−6 and 35×10^−6 cm/sec) | B (B represents a value between 15×10^−6 and 30×10^−6 cm/sec) | 
Cc1cc(Nc2cc(OC3COC3)nc(N(C)[C@@H]3C[C@H]4CCC[C@@H](C3)N4CC(=O)N3CCCC3)n2)n[nH]1 [Compound 38] | < 5000 | < 5000 | < 5000 | < 5000 | ≤ 10 | A (A represents a pKi value ≥10 (Ki≤0.1 nM)) | 0.1 to 1 |  |  | 
COC(=O)N1[C@@H]2CCC[C@H]1C[C@H](N(C)c1nc(Nc3cc(C)[nH]n3)cc(OC3COC3)n1)C2 [Compound 36] | < 5000 | 5000 to 10000 (≈ 10.9 to 21.9 mM) | > 10000 | > 10000 | ≤ 10 |  | 1 to 10 | B (B represents a value between 20×10^−6 and 35×10^−6 cm/sec) | B (B represents a value between 15×10^−6 and 30×10^−6 cm/sec) | 0.1 to 1
CCOC(=O)N1[C@@H]2CCC[C@H]1C[C@H](N(C)c1nc(Nc3cc(C)[nH]n3)cc(O[C@@H]3CCOC3)n1)C2 [Compound 24] | < 5000 | < 5000 | < 5000 | < 5000 | 10 to 31.6 | A (A represents a pKi value ≥10 (Ki≤0.1 nM)) | 0.1 to 1 |  |  | 
COCCC(=O)N1[C@@H]2CCC[C@H]1C[C@H](N(C)c1nc(Nc3cc(C)[nH]n3)cc(O[C@H]3CCOC3)n1)C2 [Compound 29] | < 5000 | > 10000 | 5000 to 10000 (≈ 10 to 20 mM) | > 10000 | ≤ 10 | A (A represents a pKi value ≥10 (Ki≤0.1 nM)) | 0.1 to 1 |  |  | 
CCC(=O)N1[C@@H]2CCC[C@H]1C[C@H](N(C)c1nc(Nc3cc(C)[nH]n3)cc(O[C@H]3CCOC3)n1)C2 [Compound 28] | < 5000 | 5000 to 10000 (≈ 10.6 to 21.3 mM) | 5000 to 10000 (≈ 10.6 to 21.3 mM) | > 10000 | ≤ 10 | A (A represents a pKi value ≥10 (Ki≤0.1 nM)) | 0.1 to 1 |  |  | 
Cc1cc(Nc2cc(O[C@@H]3CCOC3)nc(N(C)[C@@H]3C[C@H]4CCC[C@@H](C3)N4CC(=O)N3CCCC3)n2)n[nH]1 [Compound 19] | < 5000 | < 5000 | < 5000 | < 5000 | ≤ 10 | A (A represents a pKi value ≥10 (Ki≤0.1 nM)) | 0.1 to 1 |  |  | 
CCS(=O)(=O)N1[C@@H]2CCC[C@H]1C[C@H](N(C)c1nc(Nc3cc(C)[nH]n3)cc(C3CCOCC3)n1)C2 [Compound 1, N^2-((1R,3s,5S)-9-(ethylsulfonyl)-9-azabicyclo[3.3.1]nonan-3-yl)-N^2-methyl-N^4-(5-methyl-1H-pyrazol-3-yl)-6-(tetrahydro-2H-pyran-4-yl)pyrimidine-2,4-diamine] | < 5000 | > 10000 | > 10000 | > 10000 | ≤ 10 | A (A represents a pKi value ≥10 (Ki≤0.1 nM)) | 0.1 to 1 | A (A represents a value above 35×10^−6 cm/sec) | A (A represents a value above 30×10^−6 cm/sec) | 
